Test results reported in patent US20170038384A1, “TREATMENT OF TUMORS EXPRESSING MUTANT P53” (SLOAN-KETTERING INSTITUTE FOR CANCER RESEARCH, priority 2014, published 2017).

Tests used:
[1] = system: murine KPC pancreatic cancer cells; assay: MTS assay of KPC cell viability/proliferation; assay type: cell-based, mouse
Procedure: (§1) FIG. 5B is a graph of MTS assay (E490) of murine KPC and human A2.1 cells treated with crenolanib with various doses for 72 hours. Normalized values are expressed as means±SD form quadruple replicates.
Normalized values are expressed as means±SD form quadruple replicates.
(§2) All cell lines were maintained in DMEM+10% FBS, at 37° C. in 5% CO2. Stable cell lines expressing shRNAs were generated by retroviral mediated gene transfer. Briefly, Phoenix or Ampho packaging cells (for murine or human cell lines, respectively) were transfected by the calcium phosphate method with vectors expressing NF-YA, NF-YB, p53, p73, PDGFRa, PDGFRb or Renilla-control shRNAs, and the generated viruses were harvested to infect KPC, KPflC, or a series of human pancreatic, breast, lung and colon cancer cell lines. Infected cells were selected with puromycin and experiments were carried out on derived cell populations. To generate cells stably expressing mutant p53, p73 or PDGFRb, KPflC cells were infected with MSCV-p53-R175H, -R273H, PDGFRb or pcDNA3-HA-p73α and selected in puromycin and G418 respectively to yield stable pools.

[2] = system: human A2.1 pancreatic cancer cells; assay: MTS assay of A2.1 cell viability; assay type: cell-based
Procedure: as §1, §2

PDGFRb [3] = target: T1, PDGFRb (Mus musculus, UniProt P05622); assay: PDGFRb phosphorylation in KPC cells (immunoprecipitation, phospho-Tyrosine western blot); assay type: cell-based
T1 construct: endogenous in cells; host or cells: murine KPC pancreatic cancer cell line (Kras G12D, p53 R172H, Pdx1-Cre)
T1 sequence (P05622 32-1098): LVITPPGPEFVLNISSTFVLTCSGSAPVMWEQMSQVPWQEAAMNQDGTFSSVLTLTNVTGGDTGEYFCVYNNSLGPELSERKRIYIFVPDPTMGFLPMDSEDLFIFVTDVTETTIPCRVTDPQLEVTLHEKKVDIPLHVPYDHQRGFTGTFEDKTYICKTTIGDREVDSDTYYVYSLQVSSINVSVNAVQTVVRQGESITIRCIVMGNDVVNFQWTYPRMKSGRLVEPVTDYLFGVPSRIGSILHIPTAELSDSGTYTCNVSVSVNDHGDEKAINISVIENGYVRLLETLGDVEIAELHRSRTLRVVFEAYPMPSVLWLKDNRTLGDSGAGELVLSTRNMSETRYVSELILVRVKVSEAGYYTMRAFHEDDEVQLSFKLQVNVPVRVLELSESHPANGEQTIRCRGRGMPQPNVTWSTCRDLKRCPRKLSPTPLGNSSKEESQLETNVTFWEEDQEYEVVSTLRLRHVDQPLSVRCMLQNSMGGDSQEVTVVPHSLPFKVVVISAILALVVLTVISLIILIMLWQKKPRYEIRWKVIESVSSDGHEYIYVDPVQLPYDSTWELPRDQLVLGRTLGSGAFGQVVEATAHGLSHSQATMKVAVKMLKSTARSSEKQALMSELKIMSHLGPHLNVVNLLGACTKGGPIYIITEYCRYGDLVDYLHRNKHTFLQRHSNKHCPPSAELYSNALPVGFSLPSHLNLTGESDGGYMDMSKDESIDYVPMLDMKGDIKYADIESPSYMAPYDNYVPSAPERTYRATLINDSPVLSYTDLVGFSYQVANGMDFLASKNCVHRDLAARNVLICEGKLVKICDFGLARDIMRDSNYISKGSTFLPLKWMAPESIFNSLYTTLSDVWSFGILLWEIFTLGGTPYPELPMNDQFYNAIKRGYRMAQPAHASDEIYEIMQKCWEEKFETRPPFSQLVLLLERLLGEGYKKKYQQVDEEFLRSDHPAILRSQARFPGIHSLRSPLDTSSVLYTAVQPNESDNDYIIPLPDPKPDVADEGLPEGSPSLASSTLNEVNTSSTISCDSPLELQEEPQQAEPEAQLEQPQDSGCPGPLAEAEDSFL
Procedure: FIG. 5C depicts immunoprecipitation of PDGFRb from KPC cells starved for 12 hours, treated with either increasing doses of crenolanib or DMSO for 4 hours and subsequently stimulated with 50 ng/ml of PDGF-BB recombinant protein. Protein levels of PDGFRb, phospho-Tyrosine and Tubulin were determined by western blotting.
Protein levels of PDGFRb, phospho-Tyrosine and Tubulin were determined by western blotting.
FIG. 12E depicts immunoprecipitation of PDGFRb from KPC cells treated with DMSO or crenolanib (300 nM) for different time periods. The input protein levels for PDGFRb, phospho-Tyrosine, and Actin and those present in immunoprecipitates for phospho-Tyrosine were determined by western blotting.
To measure levels of endogenously phosphorylated PDGFRb, KPC cells were treated with the drug as described and harvested in phospho-lysis buffer (50 mM Tris pH 7.5, 1% Tween-20, 200 mM NaCl, 0.2% NP-40, phosphatase inhibitors [2.5 mM Sodium pyrophosphate, 1 mM β-Glycerophosphate, 1 mM Na3VO4], and protease inhibitors [Roche]).

PDGFRb [4] = target: T2, PDGFRb (Homo sapiens, UniProt P09619); assay: Western blotting for phospho-PDGFRb in A2.1 cells; assay type: cell-based; conditions: 0.3 μM
T2 construct: Western blotting for phospho-PDGFRb, PDGFRb, and Actin in human A2.1 cells; endogenous in cells; host or cells: human A2.1 pancreatic cancer cell line (mutant p53 155P)
T2 sequence (P09619 33-1106): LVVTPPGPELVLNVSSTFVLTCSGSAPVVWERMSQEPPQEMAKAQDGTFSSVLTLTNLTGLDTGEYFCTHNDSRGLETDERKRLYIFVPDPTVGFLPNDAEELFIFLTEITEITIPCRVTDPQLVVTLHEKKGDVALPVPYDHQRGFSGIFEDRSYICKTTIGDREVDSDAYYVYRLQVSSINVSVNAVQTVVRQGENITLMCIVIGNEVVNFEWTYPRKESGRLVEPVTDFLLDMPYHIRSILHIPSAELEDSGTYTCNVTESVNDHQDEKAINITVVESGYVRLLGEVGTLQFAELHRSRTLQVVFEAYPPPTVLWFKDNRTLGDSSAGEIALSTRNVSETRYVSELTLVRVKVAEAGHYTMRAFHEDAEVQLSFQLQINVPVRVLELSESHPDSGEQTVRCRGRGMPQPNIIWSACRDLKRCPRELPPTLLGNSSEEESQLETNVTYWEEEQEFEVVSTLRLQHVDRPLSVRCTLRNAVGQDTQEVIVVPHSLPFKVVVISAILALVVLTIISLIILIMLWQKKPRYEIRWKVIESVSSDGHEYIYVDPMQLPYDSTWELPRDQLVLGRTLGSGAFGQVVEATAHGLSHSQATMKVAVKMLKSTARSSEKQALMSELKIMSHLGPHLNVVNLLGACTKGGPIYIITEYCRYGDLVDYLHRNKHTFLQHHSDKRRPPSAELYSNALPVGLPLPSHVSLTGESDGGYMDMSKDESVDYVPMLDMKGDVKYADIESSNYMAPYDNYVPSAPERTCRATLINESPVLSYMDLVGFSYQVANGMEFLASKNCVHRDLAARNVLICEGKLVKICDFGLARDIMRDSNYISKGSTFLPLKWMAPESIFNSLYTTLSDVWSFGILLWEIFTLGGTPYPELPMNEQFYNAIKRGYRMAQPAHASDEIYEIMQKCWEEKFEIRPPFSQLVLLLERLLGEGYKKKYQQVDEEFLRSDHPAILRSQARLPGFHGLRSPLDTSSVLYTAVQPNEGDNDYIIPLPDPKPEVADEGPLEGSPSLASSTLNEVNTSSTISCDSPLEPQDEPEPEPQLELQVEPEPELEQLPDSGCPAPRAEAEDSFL
Text: FIG. 12D depicts Western blotting for phospho-PDGFRb, PDGFRb, and Actin in human A2.1 cells after treatment with DMSO or crenolanib at varying doses.

A2.1 cells = assay: Three-dimensional collagen invasion assay, A2.1 cells; assay type: cell-based, human; conditions: 300 nM
Procedure: Images were analyzed using Imaris software.

KPC cells [5] = assay: Lung colonization assay after tail vein injection of drug-pretreated KPC cells; assay type: in vivo, mouse
Text: FIG. 5E (left panel) are representative merged brightfield/GFP imaged of whole lung as well as H&E stains of representative sections of pulmonary lobes after tail vein injection of crenolanib- or DMSO-treated KPC cells into mice. FIG. 5E (right panel) is a graph of quantification of total number of lung metastatic nodules in individual mouse (at least six mice per each group). Data are represented as mean±SD.
FIG. 6B (left panel) are representative merged brightfield/GFP images of whole lung. FIG. 6B (middle panel) are H&E stainings of representative sections of pulmonary lobes. […] FIG. 6B (right panel) is a graph of quantification of total number of lung metastatic nodules in individual mouse (at least six mice per each group. Data are represented as mean±SD.
(§3) All animal experiments were performed in accordance with a protocol approved by the Memorial Sloan-Kettering Institutional Animal Care and Use Committee. For colonization studies, KPC cells (1×10^5) were resuspended in 200 μl PBS and injected intravenously into the tail vein of 8 week-old female athymic nude mice. Lungs were harvested 7 days post injection and analyzed for colonization by GFP positivity (Nikon SMZ1500) and histology.

KPflC cells = assay: Lung colonization assay after tail vein injection of drug-pretreated KPflC cells; assay type: in vivo, mouse; conditions: same concentration as for KPC cells
Procedure: FIG. 12G (left panel) depicts representative merged brightfield/GFP images of pulmonary lobes after tail vein injection of crenolanib- or DMSO-treated KPflC cells into mice. FIG. 12G (middle panel) depicts H&E stainings of representative sections of pulmonary lobes. FIG. 12G (right panel) is a graph of quantification of total number of lung metastatic nodules in individual mouse (at least six mice per each group). Data are represented as mean±SD.
as §3

KPC cells [6] = assay: Propidium Iodide staining of KPC cells treated overnight; assay type: cell-based, mouse; conditions: KPC cells pretreated overnight
KPC cells [7] = assay: Three-dimensional collagen invasion assay, KPC cells
Procedure: FIG. 5D (left panel) is a graph of quantification of invasion of murine KPC and human A2.1 treated with either DMSO or crenolanib at 300 nM. Values are means±SD of 9 replicates from one representative experiment.
In brief, 24-well transwell inserts (Greiner bio-one) were lined with collagen type 1 (BD Biosciences), and cells were seeded on the inverted inserts. The lower chambers were filled with medium containing 0.5% FBS and upper chambers containing the collagen matrix were filled with medium containing 20% FBS and the chemoattractant HGF.
Invasion assay inserts were fixed using 4% formaldehyde and stained using DAPI and Alexa568 phalloidin (Invitrogen) before confocal microscopy (Perkin Elmer Spinning Disk) was conducted. Images were analyzed using Imaris software.

KPC mice = assay: Treatment of KPC mice (PDAC mouse model): tumor, survival and metastasis; assay type: in vivo
Text: (§4) FIG. 6D is a graph of quantification of the number of mice with metastatic disease at the time of death. Values are percentages of the total number of mice in each cohort. Colored columns represent mice with metastases (METS) and white columns represent disease-free (DF) animals.
as §4, with “FIG. 6E is a” for “FIG. 6D is a”, “mice with lung, lymph nodes or liver metastatic disease” for “mice with metastatic disease”
Strains were maintained on mixed background. […] Organs and tumors were removed and fixed in 10% buffered formalin and tumor and metastatic burden was assessed by gross pathology and histology.

PDGFRb [8] = target: T1, PDGFRb; assay: phospho-PDGFRb in pancreatic tumors of treated KPC mice (immunofluorescence); assay type: in vivo; conditions: 50 mg/kg oral gavage twice daily
Procedure: DAPI, blue; CK8, red and p-PDGFRb, green. […] 15 images were analyzed per tumor (n=7). Tissues were fixed overnight in formalin, embedded in paraffin, and cut into 5-μm thick sections. Sections were subjected to hematoxylin and eosin staining, and immunohistochemical and immunofluorescent staining following standard protocols. The following primary antibodies were used: mouse anti-GFP (Cell Signaling), rabbit anti-p-PDGFR-β ([MUT]) (Santa Cruz Biotechnology) and rat anti-CK8 (DSHB). […] Images were acquired using a Zeiss Axio Imager D1 scope.

[9] = 50 mg/kg oral gavage twice daily

IC50 ([1]; Mus musculus, Pancreatic cancer cell, murine KPC cells, MTS assay, 72 hours, read-out: IC50, inhibiting the viability) [µM] | IC50 ([2]; Pancreatic cancer cell, human A2.1 cells, MTS assay, 72 hours, read-out: IC50, inhibiting the viability) [µM] | inhibition of PDGFRb activity, as measured by phospho-PDGFRb (PDGFRb [3]; 0.3 μM) | time of drug treatment to strong target inhibition (PDGFRb [3]; time course, 300 nM) [min] | inhibition of PDGFRb activity, as measured by phospho-PDGFRb (PDGFRb [4]) | Structure (SMILES) | toxicity ([1]; KPC cells, 0.3 μM) | toxicity ([2]; A2.1 cells, 0.3 μM) | invasion relative to cells treated with DMSO (A2.1 cells) | lung nodules compared to controls pre-treated with DMSO (KPC cells [5]; KPC cells pretreated overnight, injected intravenously) | metastatic potential in lung colonization assay (KPflC cells) | viability of the injected cell population (KPC cells [6]) | invasion relative to cells treated with DMSO (KPC cells [7]; 300 nM) | PDGFRb tyrosine phosphorylation (PDGFRb [3]; 3 uM) | potential to colonize the lungs of recipient athymic mice (KPC cells [5]; pre-treatment of KPC cells) | anti-metastatic effect across organs (liver, lymph nodes and lung) (KPC mice; [9]) | occurrence of metastasis (KPC mice; [9]) | overall survival (KPC mice; 50 mg/kg oral gavage twice daily from 8 weeks of age) | incidence of metastasis (KPC mice; 50 mg/kg oral gavage twice daily, GFP fluorescence and histopathology, 92% in vehicle-treated animals) [%] | levels of phospho-PDGFRb in the tumor cells of primary tumors (PDGFRb [8]) | invasive potential in vitro (KPC cells [7]; 3 μM vs DMSO)
13.1 | 8.5 | Strong inhibition | ≤ 10 | Strong inhibition | CC1(COc2ccc3c(c2)ncn3-c2ccc3cccc(N4CCC(N)CC4)c3n2)COC1 [crenolanib, Crenolanib] | no toxicity was observed | no toxicity was observed | substantially reduced invasion | significantly fewer lung nodules | did not reduce the metastatic potential | no effect on the viability | substantially reduced invasion | – | – | – | – | – | – | – | –
– | – | – | – | – | Cc1ccc(NC(=O)c2ccc(CN3CCN(C)CC3)cc2)cc1Nc1nccc(-c2cccnc2)n1 [imatinib] | – | – | – | – | – | – | – | strongly reduced PDGFRb tyrosine phosphorylation | decreased their potential to colonize the lungs | anti-metastatic effect was observed | striking reduction in the occurrence of metastasis | no impact | 15 | reduced levels of phospho-PDGFRb | significantly reduced the invasive potential
